Biological target: T1, USP7 (Homo sapiens, UniProt Q93009)
T1 construct: full length human USP7 protein; made in house
Assay: USP7, Ub-PLA2 assay
Assay type: biochemical
Conditions: for EC50: Ub-PLA2 / NBD C6-HPC fluorescence, 30 minute preincubation, read-out: EC50 for inhibition of USP7
Outline: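 Activity read as fluorescence in a Ub-PLA2 format, with percent inhibition calculated within each plate against DMSO (uninhibited) and NEM (background) wells. Vehicle was 100% DMSO.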

T1 sequence (Q93009 whole entry): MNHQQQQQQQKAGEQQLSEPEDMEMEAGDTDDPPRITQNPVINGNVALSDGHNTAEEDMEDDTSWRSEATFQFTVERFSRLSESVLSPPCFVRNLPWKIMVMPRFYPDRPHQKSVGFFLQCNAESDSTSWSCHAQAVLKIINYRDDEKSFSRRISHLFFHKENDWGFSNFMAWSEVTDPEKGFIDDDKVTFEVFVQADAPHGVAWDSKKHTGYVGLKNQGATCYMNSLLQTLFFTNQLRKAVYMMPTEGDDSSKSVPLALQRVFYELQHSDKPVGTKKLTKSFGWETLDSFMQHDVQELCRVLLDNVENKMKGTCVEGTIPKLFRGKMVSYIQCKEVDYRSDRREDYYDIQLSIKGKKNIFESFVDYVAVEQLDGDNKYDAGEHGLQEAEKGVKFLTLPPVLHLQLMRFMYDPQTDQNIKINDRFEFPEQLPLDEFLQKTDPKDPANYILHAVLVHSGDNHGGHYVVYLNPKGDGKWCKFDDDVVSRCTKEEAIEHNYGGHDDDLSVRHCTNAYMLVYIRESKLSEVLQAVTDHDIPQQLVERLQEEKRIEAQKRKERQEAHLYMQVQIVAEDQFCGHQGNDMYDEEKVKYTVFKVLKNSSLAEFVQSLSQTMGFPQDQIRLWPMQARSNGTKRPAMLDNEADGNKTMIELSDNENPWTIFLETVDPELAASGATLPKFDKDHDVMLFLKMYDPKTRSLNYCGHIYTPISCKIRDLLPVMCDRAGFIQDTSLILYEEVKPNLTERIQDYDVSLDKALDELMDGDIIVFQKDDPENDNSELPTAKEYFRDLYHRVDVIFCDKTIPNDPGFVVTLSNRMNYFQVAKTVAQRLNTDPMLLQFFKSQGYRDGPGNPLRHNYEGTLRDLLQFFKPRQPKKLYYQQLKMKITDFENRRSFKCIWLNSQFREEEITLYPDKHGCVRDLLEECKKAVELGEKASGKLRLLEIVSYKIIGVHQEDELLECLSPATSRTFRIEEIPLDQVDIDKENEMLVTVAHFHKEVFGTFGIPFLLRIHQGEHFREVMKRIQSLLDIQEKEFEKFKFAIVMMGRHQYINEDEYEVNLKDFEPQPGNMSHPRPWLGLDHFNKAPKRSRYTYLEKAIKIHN

Structure (SMILES) | EC50 | USP7 inhibition, result in words (USP7, Ub-PLA2 assay)
O=C(NCCCN1CCCC(O)C1)c1cc([N+](=O)[O-])c(Sc2c(Cl)cncc2Cl)s1 (stereo not drawn) [Example 223, 5-((3,5-dichloropyridin-4-yl)thio)-N-(3-(3-hydroxypiperidin-1-yl)propyl)-4-nitrothiophene-2-carboxamide] | 1000 to 10000 nM | 
CN(C)C1CCN(CCCNC(=O)c2cc([N+](=O)[O-])c(Sc3c(Cl)cncc3Cl)s2)CC1 [Example 224, 5-((3,5-dichloropyridin-4-yl)thio)-N-(3-(4-(dimethylamino)piperidin-1-yl)propyl)-4-nitrothiophene-2-carboxamide] | 1000 to 10000 nM | 
O=C(NCCCN1CCC(O)CC1)c1cc([N+](=O)[O-])c(Sc2c(Cl)cncc2Cl)s1 [Example 225, 5-((3,5-dichloropyridin-4-yl)thio)-N-(3-(4-hydroxypiperidin-1-yl)propyl)-4-nitrothiophene-2-carboxamide] | ≤ 1000 nM | 
NC(=O)C1CCN(CCCNC(=O)c2cc([N+](=O)[O-])c(Sc3c(Cl)cncc3Cl)s2)CC1 [Example 226, 1-(3-(5-((3,5-dichloropyridin-4-yl)thio)-4-nitrothiophene-2-carboxamido)propyl)piperidine-4-carboxamide] | ≤ 1000 nM | 
O=C(NCCCN1CCC(CO)CC1)c1cc([N+](=O)[O-])c(Sc2c(Cl)cncc2Cl)s1 [Example 227, 5-((3,5-dichloropyridin-4-yl)thio)-N-(3-(4-(hydroxymethyl)piperidin-1-yl)propyl)-4-nitrothiophene-2-carboxamide] | ≤ 1000 nM | 
O=C(NCCCN1CCC(F)CC1)c1cc([N+](=O)[O-])c(Sc2c(Cl)cncc2Cl)s1 [Example 228, 5-((3,5-dichloropyridin-4-yl)thio)-N-(3-(4-fluoropiperidin-1-yl)propyl)-4-nitrothiophene-2-carboxamide] | 1000 to 10000 nM | 
CC1(C)CCN(CCCNC(=O)c2cc([N+](=O)[O-])c(Sc3c(Cl)cncc3Cl)s2)CC1 [Example 229, 5-((3,5-dichloropyridin-4-yl)thio)-N-(3-(4,4-dimethylpiperidin-1-yl)propyl)-4-nitrothiophene-2-carboxamide] | ≤ 1000 nM | 
CCCN1CCC(NC(=O)c2cc([N+](=O)[O-])c(Sc3c(Cl)cncc3Cl)s2)CC1 [Example 230, 5-((3,5-dichloropyridin-4-yl)thio)-4-nitro-N-(1-propylpiperidin-4-yl)thiophene-2-carboxamide] | ≤ 1000 nM | 
O=C(NC1CCN(C2CC2)CC1)c1cc([N+](=O)[O-])c(Sc2c(Cl)cncc2Cl)s1 [Example 231, N-(1-cyclopropylpiperidin-4-yl)-5-((3,5-dichloropyridin-4-yl)thio)-4-nitrothiophene-2-carboxamide] | 1000 to 10000 nM | 
CC(=O)N1CCC(NC(=O)c2cc([N+](=O)[O-])c(Sc3c(Cl)cncc3Cl)s2)CC1 [Example 232, N-(1-acetylpiperidin-4-yl)-5-((3,5-dichloropyridin-4-yl)thio)-4-nitrothiophene-2-carboxamide] | 1000 to 10000 nM | 
CS(=O)(=O)N1CCC(NC(=O)c2cc([N+](=O)[O-])c(Sc3c(Cl)cncc3Cl)s2)CC1 [Example 233, 5-((3,5-dichloropyridin-4-yl)thio)-N-(1-(methylsulfonyl)piperidin-4-yl)-4-nitrothiophene-2-carboxamide] | ≤ 1000 nM | 
CC(C)(C)OC(=O)Nc1ccc(NC(=O)c2cc([N+](=O)[O-])c(Sc3c(Cl)cncc3Cl)s2)cc1 [Example 234, tert-butyl (4-(5-((3,5-dichloropyridin-4-yl)thio)-4-nitrothiophene-2-carboxamido)phenyl)carbamate] | ≤ 1000 nM | 
Nc1ccc(NC(=O)c2cc([N+](=O)[O-])c(Sc3c(Cl)cncc3Cl)s2)cc1 [Example 235, N-(4-aminophenyl)-5-((3,5-dichloropyridin-4-yl)thio)-4-nitrothiophene-2-carboxamide] | ≤ 1000 nM | 
N=C(N)Nc1ccc(NC(=O)c2cc([N+](=O)[O-])c(Sc3c(Cl)cncc3Cl)s2)cc1 [Example 236, 5-((3,5-dichloropyridin-4-yl)thio)-N-(4-guanidinophenyl)-4-nitrothiophene-2-carboxamide] | ≤ 1000 nM | Particularly good results
N=C(N)N1CCC(NC(=O)c2cc([N+](=O)[O-])c(Sc3c(Cl)cncc3Cl)s2)CC1 [Example 237, N-(1-carbamimidoylpiperidin-4-yl)-5-((3,5-dichloropyridin-4-yl)thio)-4-nitrothiophene-2-carboxamide] | ≤ 1000 nM | 
COc1cncc(CNC(=O)c2cc([N+](=O)[O-])c(Sc3c(Cl)cncc3Cl)s2)c1 [Example 239, 5-((3,5-dichloropyridin-4-yl)thio)-N-((5-methoxypyridin-3-yl)methyl)-4-nitrothiophene-2-carboxamide] | ≤ 1000 nM | 
COc1cc(NC(=O)c2cc([N+](=O)[O-])c(Sc3c(Cl)cncc3Cl)s2)ccc1OCCCN(C)C [Example 240, 5-((3,5-dichloropyridin-4-yl)thio)-N-(4-(3-(dimethylamino)propoxy)-3-methoxyphenyl)-4-nitrothiophene-2-carboxamide] | ≤ 1000 nM | 
O=C(NCC(O)CN1CCCCC1)c1cc([N+](=O)[O-])c(Sc2c(Cl)cncc2Cl)s1 (stereo not drawn) [Example 241, 5-((3,5-dichloropyridin-4-yl)thio)-N-(2-hydroxy-3-(piperidin-1-yl)propyl)-4-nitrothiophene-2-carboxamide] | 1000 to 10000 nM | 

Structure (SMILES) | EC50 | USP7 inhibition, result in words (USP7, Ub-PLA2 assay)
CN1CCC(NC(=O)c2cc([N+](=O)[O-])c(Sc3c(Cl)c[n+]([O-])cc3Cl)s2)CC1 [Example 242, 3,5-dichloro-4-((5-((1-methylpiperidin-4-yl)carbamoyl)-3-nitrothiophen-2-yl)thio)pyridine 1-oxide] | 1000 to 10000 nM | 
Cc1nc(C)c(Cl)c(Sc2sc(C(=O)NC3CCN(C)CC3)cc2[N+](=O)[O-])c1Cl [Example 243, 5-((3,5-dichloro-2,6-dimethylpyridin-4-yl)thio)-N-(1-methylpiperidin-4-yl)-4-nitrothiophene-2-carboxamide] | 1000 to 10000 nM | 
C[S+]([O-])CCCNC(=O)c1cc([N+](=O)[O-])c(Sc2c(Cl)cncc2Cl)s1 (stereo not drawn) [Example 244, 5-((3,5-dichloropyridin-4-yl)thio)-N-(3-(methylsulfinyl)propyl)-4-nitrothiophene-2-carboxamide] | 1000 to 10000 nM | 
CS(=O)(=O)CCCNC(=O)c1cc([N+](=O)[O-])c(Sc2c(Cl)cncc2Cl)s1 [Example 245, 5-((3,5-dichloropyridin-4-yl)thio)-N-(3-(methylsulfonyl)propyl)-4-nitrothiophene-2-carboxamide] | 1000 to 10000 nM | 
CN1CCC(NS(=O)(=O)c2cc([N+](=O)[O-])c(Sc3c(Cl)cncc3Cl)s2)CC1 [Example 246, 5-((3,5-dichloropyridin-4-yl)thio)-N-(1-methylpiperidin-4-yl)-4-nitrothiophene-2-sulfonamide] | 1000 to 10000 nM | 
CN1CCC(NC(=O)c2sc(Sc3c(Cl)cncc3Cl)c(C#N)c2-c2ccccc2)CC1 [Example 247, 4-cyano-5-((3,5-dichloropyridin-4-yl)thio)-N-(1-methylpiperidin-4-yl)-3-phenylthiophene-2-carboxamide] | 1000 to 10000 nM | 
O=C1COc2ccc(Sc3sc(C(=O)Nc4cc(C5CC5)n[nH]4)cc3[N+](=O)[O-])cc2N1 [Example 248, N-(3-cyclopropyl-1H-pyrazol-5-yl)-4-nitro-5-((3-oxo-3,4-dihydro-2H-benzo[b][1,4]oxazin-6-yl)thio)thiophene-2-carboxamide] | 1000 to 10000 nM | 
O=C(NCCCN1CCCCC1)c1cc([N+](=O)[O-])c(Sc2ccc(Cl)cc2Cl)s1 [Example 249, 5-((2,4-dichlorophenyl)thio)-4-nitro-N-(3-(piperidin-1-yl)propyl)thiophene-2-carboxamide] | 1000 to 10000 nM | 
O=C(NCc1ccccc1)c1cc([N+](=O)[O-])c(Sc2nc3ccccc3s2)s1 [Example 252, 5-(benzo[d]thiazol-2-ylthio)-N-benzyl-4-nitrothiophene-2-carboxamide] | 1000 to 10000 nM | 
CC(C)N1CCC(NC(=O)c2cc([N+](=O)[O-])c(Sc3nc4ccccc4s3)s2)CC1 [Example 253, 5-(benzo[d]thiazol-2-ylthio)-N-(1-isopropylpiperidin-4-yl)-4-nitrothiophene-2-carboxamide] | 1000 to 10000 nM | 
CN(C)CCC(NC(=O)c1cc([N+](=O)[O-])c(Sc2nc3ccccc3s2)s1)c1ccccc1 (stereo not drawn) [Example 254, 5-(benzo[d]thiazol-2-ylthio)-N-(3-(dimethylamino)-1-phenylpropyl)-4-nitrothiophene-2-carboxamide] | 1000 to 10000 nM | 
COC(=O)c1cc([N+](=O)[O-])c(Sc2c(F)cncc2F)s1 [Example 255, Methyl 5-((3,5-difluoropyridin-4-yl)thio)-4-nitrothiophene-2-carboxylate] | 1000 to 10000 nM | 
CN1CCC(NC(=O)c2cc([N+](=O)[O-])c(Sc3c(F)cncc3F)s2)CC1 [Example 256, 5-((3,5-difluoropyridin-4-yl)thio)-N-(1-methylpiperidin-4-yl)-4-nitrothiophene-2-carboxamide] | 1000 to 10000 nM | 
CN(C)CCCOc1ccc(NC(=O)c2cc([N+](=O)[O-])c(Sc3c(F)cncc3F)s2)cc1 [Example 257, 5-((3,5-difluoropyridin-4-yl)thio)-N-(4-(3-(dimethylamino)propoxy)phenyl)-4-nitrothiophene-2-carboxamide] | 1000 to 10000 nM | 
COC(=O)c1cc([N+](=O)[O-])c(Oc2c(Cl)cncc2Cl)s1 [Example 258, Methyl 5-((3,5-dichloropyridin-4-yl)oxy)-4-nitrothiophene-2-carboxylate] | 1000 to 10000 nM | 
CN1CCC(NC(=O)c2cc([N+](=O)[O-])c(Oc3c(Cl)cncc3Cl)s2)CC1 [Example 259, 5-((3,5-dichloropyridin-4-yl)oxy)-N-(1-methylpiperidin-4-yl)-4-nitrothiophene-2-carboxamide] | > 10000 nM | 
CC(C)N1CCC(NC(=O)c2cc([N+](=O)[O-])c(Oc3c(Cl)cncc3Cl)s2)CC1 [Example 260, 5-((3,5-dichloropyridin-4-yl)oxy)-N-(1-isopropylpiperidin-4-yl)-4-nitrothiophene-2-carboxamide] | > 10000 nM | 
